This experiment relates to PAF-induced platelet aggregation. As to the kind of experiment: Inhibitory effect on PAF-induced platelet aggregation in rabbits (in vitro test). The settings on record: Oryctolagus cuniculus, read-out: Inhibition of PAF-induced platelet aggregation IC50. It counts as cell-based. The method, then: Experiment 1: Inhibitory effect on platelet aggregation in rabbits (in vitro test)
Blood samples to which was added 1/10 volume of 3.8% sodium citrate solution were collected from rabbits. Platelet rich plasma (PRP) was prepared by centrifuging the blood sample at 200×g for 10 minutes, and platelet poor plasma (PPP) was prepared by centrifuging the remaining blood sample at 1000× g for 10 minutes.
Aggregation ability was measured with a turbidimetric device (6-channel NKK Hematracer 1, model PAT-6A) according to the method of G.V.R. Born described in J. Physiology, vol. 168, p. 178 (1963). The aggregometer was adjusted in sensitivity to give light transmission values of 0 and 100% for PRP and PPP, respectively. With stirring at 1000 rpm, 0.3 μl of test compound solution or solvent was added to 0.3 ml of PRP. After the mixture was kept at 37° C. for 2 minutes, to the mixture was added 3 μl synthetic PAF at the final concentration of 1.8×10^-7 M and the light transmission was recorded for 5 minutes.
The inhibition percentage of test compounds on platelet aggregation was calculated from the following formula by measuring the maximal light transmission in the presence and absence of the test compounds. [formula]
IC50 (μg/ml, concentration of 50% inhibition) was graphically determined.

In brackets after ≈: the same amount, converted by molar mass. Structures can show the parent of a compound that is named as a salt. Where two headings read alike, the source gives them in different places.

With `CCc1cc2c(s1)-n1c(C)nnc1CN=C2c1ccccc1Cl` [Etizolam, 6-(o-chlorophenyl)-8-ethyl-1-methyl-4H-s-triazolo [3,4c]thieno[2,3-e][1,4]diazepine, reference compound], the 50% inhibitory concentration (IC50) (Platelet) stood at 1.3 µg/mL (≈ 3.79 µM).
On the same count and under the same terms, under `Cc1nnc2n1-c1sc(C(C)OC(=O)C(C)c3ccc(CC(C)C)cc3)cc1C(c1ccccc1Cl)=NC2` (centres unmarked) [Example 2, 2-(1-(2-(4-iso-butylphenyl)propionyl)oxyethyl)-4-(2-chlorophenyl)-9-methyl-6H-thieno[3,2-f][1,2,4]triazolo[4,3-a][1,4]diazepine] stands 0.01 to 0.03 µg/mL (≈ 0.0183 to 0.0548 µM).
Take `Cc1ccccc1C1=NCc2nnc(C)n2-c2sc(C(C)OC(=O)C(C)c3ccc(CC(C)C)cc3)cc21` (centres unmarked) [Example 4, 2-(1-(2-(4-isobutylphenyl)propionyl)oxyethyl)-4-(2-methylphenyl)-9-methyl-6H-thieno[3,2-f][1,2,4]triazolo[4,3-a][1,4]diazepine]: under “rabbit platelet rich plasma, 37° C., PAF final concentration 1.8×10^-7 M”, the concentration for half-maximal inhibition (IC50) was 0.03 to 0.1 µg/mL (≈ 0.057 to 0.19 µM).
Regarding `Cc1nnc2n1-c1sc(C(C)OC(=O)c3ccccc3)cc1C(c1ccccc1Cl)=NC2` (centres unmarked) [Example 13, 2-(1-benzoyloxyethyl)-4-(2-chlorophenyl)-9-methyl-6H-thieno[3,2-f][1,2,4]triazolo[4,3-a][1,4]diazepine.hydrochloride], the IC50 (Platelet) lay within 0.1 to 0.3 µg/mL.
For the molecule `Cc1nnc2n1-c1sc(C(C)OC(=O)C(C)(C)C)cc1C(c1ccccc1Cl)=NC2` (centres unmarked) [Example 14, 4-(2-chlorophenyl)-9-methyl-2(1-pivaloyloxyethyl)-6H-thieno[3,2-f][1,2,4]triazolo[4,3-a][1,4]diazepine], where the note is “Platelet”, the IC50 came to 0.2 µg/mL (≈ 0.451 µM).
